Test results as given in PubChem BioAssay AID2635 (Broad Institute, 2010).
Results filed as inconclusive are left out. Active and inactive are the calls of the source. No rule for the calls is given here.

Test system: BJ-TERT RAS-dependent fibroblast cytotoxicity, fluorescence
Test: cytotoxicity toward RAS-dependent BJ-TERT fibroblasts, dose response, cell-based, fluorescence viability readout (AID 2635)

Oc1ccccc1N=Nc1nc(-c2ccccc2)c(-c2ccccc2)[nH]1 was tested. Which EC50 did it give?
The EC50 was 0.374 µM.

For COC(=O)[C@@H]1Cc2c([nH]c3ccccc23)C(C)(C)N1C(=O)CCl, which EC50 is on record?
Its EC50 is > 6.67 µM (inactive).

With CC[C@@]1(O)C(=O)OCc2c1cc1n(c2=O)Cc2cc3c(NC(=O)CN)cccc3nc2-1 as the compound, how does the EC50 read?
The EC50 was 5.85 µM.

Which EC50 does the source give for O=S(=O)(c1ccc(NC(=S)NCc2cccnc2)cc1)N1CCCCC1 here?
Its EC50 is > 6.67 µM (inactive).

COc1cccc(/C=C2\SC(=S)N(CCCC(=O)N(CCO)c3ccccc3)C2=O)c1 was tested. Which EC50 did it give?
Its EC50 is > 6.67 µM (inactive).

How did the EC50 turn out when O=C(NCCOc1cccnc1)c1ccc(OC2CCN(Cc3ccccn3)CC2)cc1 was run?
Its EC50 is 5.19 µM.

For CC[C@H]1CN2CCc3cc(OC)c(OC)cc3[C@@H]2C[C@@H]1C[C@H]1NCCc2cc(OC)c(OC)cc21, which EC50 is on record?
The EC50 was 0.0103 µM.

With Cc1ccc(/C=C2\SC(=S)N(CCCC(=O)N3CCOCC3)C2=O)cc1 as the compound, how does the EC50 read?
The EC50 was > 6.67 µM (inactive).

How did the EC50 turn out when O=C(CCCCCN1C(=O)c2cccc3cccc(c23)C1=O)NCc1cccnc1 was run?
The EC50 was > 6.67 µM (inactive).

Which EC50 does the source give for Cc1cccc(OCC(=O)Nc2ccc(C(=O)NCc3cccnc3)cc2)c1 here?
The EC50 was > 6.67 µM (inactive).

With COc1cccc(N(C(=O)CCl)C(C(=O)NCCc2ccccc2)c2cccs2)c1 (stereo not drawn) as the compound, how does the EC50 read?
The EC50 was 6.05 µM.

With COc1ccc(N(C(=O)CCl)C(C(=O)NCCc2ccccc2)c2cccs2)cc1Cl (stereo not drawn) as the compound, how does the EC50 read?
Its EC50 is > 2.08 µM (inactive).

For COc1ccc(C[C@H]2NC[C@H](O)[C@H]2OC(C)=O)cc1, which EC50 is on record?
The EC50 was 0.0456 µM.

How did the EC50 turn out when COc1ccc(Cc2nc(-c3ccc(NC(=O)c4cccnc4)cc3)no2)cc1 was run?
The EC50 was > 6.67 µM (inactive).

CCc1ccc(/C=C2/SC(=S)N(CCC(=O)NCCCN3CCOCC3)C2=O)cc1 was tested. Which EC50 did it give?
Its EC50 is > 6.67 µM (inactive).

CN1CCN(C(=O)CCCN2C(=O)/C(=C/c3cccc(Br)c3)SC2=S)CC1 was tested. Which EC50 did it give?
Its EC50 is > 6.67 µM (inactive).

With COc1ccc(S(=O)(=O)N2CCOCC2)cc1NC(=O)CCNC(=O)c1ccc(Br)cc1 as the compound, how does the EC50 read?
Its EC50 is > 6.67 µM (inactive).

With O=C(CCl)N=c1sccn1Cc1ccccc1Cl as the compound, how does the EC50 read?
The EC50 was > 2.08 µM (inactive).

With O=S(=O)(c1ccc2c(c1)C(=NO)c1cc(S(=O)(=O)N3CCCCC3)ccc1-2)N1CCCCC1 as the compound, how does the EC50 read?
The EC50 was 2.58 µM.

For O=C(CCN1C(=O)/C(=C\c2cccc(Br)c2)SC1=S)NCCCN1CCOCC1, which EC50 is on record?
The EC50 was > 6.67 µM (inactive).

Cc1ccc(Nc2nc(N)nc(CCl)n2)c(C)c1 was tested. Which EC50 did it give?
The EC50 was > 6.67 µM (inactive).

Which EC50 does the source give for O=C(COc1ccc(Cl)cc1)Nc1ccc(C(=O)NCc2cccnc2)cc1 here?
Its EC50 is > 6.67 µM (inactive).

With C/C(=N\Nc1ncc(Cl)cc1Cl)c1ccccn1 as the compound, how does the EC50 read?
Its EC50 is 0.0273 µM.

COc1ccc(OC)c(Nc2nc(N)nc(CCl)n2)c1 was tested. Which EC50 did it give?
The EC50 was > 6.67 µM (inactive).

How did the EC50 turn out when Cc1cccc(Nc2nc(N)nc(CCl)n2)c1C was run?
Its EC50 is > 6.67 µM (inactive).

CC1=CC(=O)C=C(C)C1=NOc1ccccc1[N+](=O)[O-] was tested. Which EC50 did it give?
Its EC50 is > 6.67 µM (inactive).

How did the EC50 turn out when CCN(CC)c1ccc(/C=N/NC(=O)c2nnn(-c3nonc3N)c2C(C)C)c(O)c1 was run?
The EC50 was 0.954 µM.

Which EC50 does the source give for O=C(NCc1cccnc1)c1ccc(NC(=O)c2cccc([N+](=O)[O-])c2)cc1 here?
Its EC50 is > 6.67 µM (inactive).

Which EC50 does the source give for Cc1cccnc1Nc1nc(-c2ccccn2)cs1 here?
Its EC50 is 0.985 µM.

With O=C(N/N=C/c1cccnc1)c1ccc(NC(=O)C(c2ccccc2)c2ccccc2)cc1 as the compound, how does the EC50 read?
The EC50 was > 6.67 µM (inactive).

Which EC50 does the source give for COC(=O)C[C@](O)(CCCC(C)(C)O)C(=O)O[C@@H]1C(OC)=C[C@]23CCCN2CCc2cc4c(cc2[C@H]13)OCO4 here?
The EC50 was 0.00683 µM.

How did the EC50 turn out when C=CCOc1ccccc1CN(C(=O)CCl)c1ccc2c(c1)OCO2 was run?
The EC50 was > 6.67 µM (inactive).

Which EC50 does the source give for C/C(=N\Nc1ccc2nncn2n1)c1ccccn1 here?
The EC50 was 5.47 µM.

Which EC50 does the source give for CC(C)(C)c1nnc(N/N=C/c2cc(Br)ccc2O)n(N)c1=O here?
Its EC50 is 1.91 µM.

How did the EC50 turn out when CCN1/C(=C\C=C\C2=[N+](CC)c3ccccc3C2(C)C)C(C)(C)c2ccccc21 was run?
Its EC50 is 0.287 µM.

Cc1cccc(Nc2nc(N)nc(CCl)n2)c1 was tested. Which EC50 did it give?
Its EC50 is > 6.67 µM (inactive).

Cc1ccc(C(=O)Sc2cccccc2=O)cc1 was tested. Which EC50 did it give?
The EC50 was 0.13 µM.

Which EC50 does the source give for CC(=O)Nc1ccc(NC(=O)CN(c2cccc([N+](=O)[O-])c2)S(C)(=O)=O)cc1 here?
The EC50 was > 6.67 µM (inactive).

How did the EC50 turn out when COc1ccc(N(C(=O)CCl)C(C(=O)NCCc2ccccc2)c2cccs2)cc1 (stereo not drawn) was run?
Its EC50 is 4.89 µM.

Which EC50 does the source give for CCOc1ccc(CC(=O)Nc2ccc(NC(=O)c3ccco3)cc2)cc1OCC here?
The EC50 was > 6.67 µM (inactive).

Which EC50 does the source give for CC[C@@]1(O)C(=O)OCc2c1cc1n(c2=O)Cc2cc3c(N)cccc3nc2-1 here?
Its EC50 is 0.052 µM.

O=C(NCc1cccnc1)c1ccc(-c2cc3ccccc3oc2=O)cc1 was tested. Which EC50 did it give?
Its EC50 is > 6.67 µM (inactive).

O=C(Cc1ccc([N+](=O)[O-])cc1)N/N=C/c1ccc([N+](=O)[O-])o1 was tested. Which EC50 did it give?
Its EC50 is > 6.67 µM (inactive).

Which EC50 does the source give for Cc1ccccc1Nc1nc(N)nc(CCl)n1 here?
The EC50 was > 6.67 µM (inactive).

Which EC50 does the source give for Nc1nc(CCl)nc(Nc2cccc3ccccc23)n1 here?
Its EC50 is > 6.67 µM (inactive).

For O=[N+]([O-])c1ccc(N=Nc2ncc[nH]2)cc1, which EC50 is on record?
Its EC50 is > 6.67 µM (inactive).

CC(Oc1ccc(Cl)cc1Cl)c1nc(-c2ccc(NC(=O)c3cccnc3)cc2)no1 (stereo not drawn) was tested. Which EC50 did it give?
Its EC50 is > 6.67 µM (inactive).

CC[C@@]1(O)C(=O)OCc2c1cc1n(c2=O)Cc2cc3c(CN(C)C)c(O)ccc3nc2-1 was tested. Which EC50 did it give?
The EC50 was 0.23 µM.

For CC(C)C(=O)Nc1ccc(C(=O)NCc2cccnc2)cc1, which EC50 is on record?
Its EC50 is > 6.67 µM (inactive).

Which EC50 does the source give for CCc1ccc(/C=C2\SC(=S)N(CCC(=O)NCCCN3CCOCC3)C2=O)cc1 here?
The EC50 was > 6.67 µM (inactive).

With C=C1C(=O)O[C@@H]2C[C@@H](C)[C@@H]3C=CC(=O)[C@@]3(C)[C@@H](OC(=O)CC(=O)O[C@H]3[C@@H]4C(=C)C(=O)O[C@@H]4C[C@@H](C)[C@@H]4C=CC(=O)[C@]43C)[C@H]12 as the compound, how does the EC50 read?
The EC50 was 0.144 µM.

With CCc1ccc(/C=C2/SC(=S)N(CCC(=O)Nc3cccnc3)C2=O)cc1 as the compound, how does the EC50 read?
Its EC50 is > 6.67 µM (inactive).

CC(C)(C)c1ccc(C(=O)Nc2ccc(C(=O)NCc3cccnc3)cc2)cc1 was tested. Which EC50 did it give?
Its EC50 is > 6.67 µM (inactive).

COc1ccc(C(C(=O)NC2CCCCC2)N(C(=O)CCl)c2cccc(Cl)c2)cc1 (stereo not drawn) was tested. Which EC50 did it give?
The EC50 was > 2.08 µM (inactive).

For COc1ccc(C(C(=O)NC2CCCCC2)N(C(=O)CCl)c2ccc(C)cc2)cc1 (stereo not drawn), which EC50 is on record?
Its EC50 is > 6.67 µM (inactive).

For Cc1ccc(N(C(=O)CCl)C(C(=O)NC2CCCCC2)c2cccnc2)cc1C (stereo not drawn), which EC50 is on record?
The EC50 was 0.26 µM.

Which EC50 does the source give for O=C(NCc1cccnc1)c1ccc(NC(=O)c2ccc([N+](=O)[O-])cc2)cc1 here?
Its EC50 is > 6.67 µM (inactive).

With CC[C@@]1(O)C(=O)OCc2c1cc1n(c2=O)Cc2cc3ccccc3nc2-1 as the compound, how does the EC50 read?
The EC50 was 0.0178 µM.
